According to patent US20260297083A1, “SUBSTITUTED ACETYLENE COMPOUND DERIVATIVES AND THEIR PHARMACEUTICAL USE” (AVELOS THERAPEUTICS INC., priority 2023, published 2026):

The compounds below were run on DLD-1 BRCA2(−/−) Cell (assay: Cell viability assay (Resazurin) in DLD1-BRCA2 cells). Conditions: Homo sapiens, DLD-1, 336 h, 14 days, 1,500 cells/well, final DMSO 1%.
Type: cell-based
Experimental: DLD1-BRCA2 KG (Horizon Discovery, Cat #HD 105-007) cells and DLD1-parental cells were maintained in culture media (RPMI-1640 including 2 mM L-glutamin and 25 mM sodium bicarbonate, supplemented with 10% FBS), at 37° C. in a humidified atmosphere with 5% CO2. Cells were seeded at the final concentration of 1,500 cells/well (DLD1-BRCA2 KG) and 600 cells/well (DLD1-parental) in a 96-well plate. Four hours later, test compounds were added (the final concentration of DMSO was 1%) to the cells and media were replaced every 3-4 days for 14 days. To measure viability, cells were incubated in culture media supplemented with 0.1 mg/ml of Resazurin (Merck, Cat #R7017) for 4 hours. The fluorescence was measured at Ex/Em=560 nm/590 nm using EnSight multimode plate reader (Perkin Elmer). Data analysis and IC50 calculation was done using GraphPad Prism (Version 10.0.2).

Row | SMILES | IC50
1 | Cc1cc(C(F)(F)F)cc(N2[C@H](C(=O)N(CC#Cc3cccc(OC(C)C)n3)c3ccc(F)c(C)c3)CCS2(=O)=O)n1 [Example 88, (S)-N-(4-fluoro-3-methylphenyl)-N-(3-(6-isopropoxypyridin-2-yl)prop-2-yn-1-yl)-2-(6-methyl-4-(trifluoromethyl)pyridin-2-yl)isothiazolidine-3-carboxamide 1,1-dioxide] | 1100 to 5000 nM
2 | Cc1cc(C(F)(F)F)cc(N2[C@H](C(=O)N(CC#Cc3ccc(-c4ncon4)nc3)c3ccc(F)c(C)c3)CCS2(=O)=O)n1 [Example 116, (S)-N-(3-(6-(1,2,4-oxadiazol-3-yl)pyridin-3-vl)prop-2-yn-1-yl)-N-(4-fluoro-3-methylphenyl)-2-(6-methyl-4-(trifluoromethyl)pyridin-2-yl)isothiazolidine-3-carboxamide 1,1-dioxide] | < 1000 nM
3 | CNC(=O)c1cnc(C#CCN(C(=O)[C@@H]2CCS(=O)(=O)N2c2cc(C(F)(F)F)cc(C)n2)c2ccc(F)c(C)c2)cn1 [Example 67, (S)-N-(4-fluoro-3-methylphenyl)-2-(6-methyl-4-(trifluoromethyl)pyridin-2-yl)-N-(3-(5-(methylcarbamoyl)pyrazin-2-yl)prop-2-yn-1-yl)isothiazolidine-3-carboxamide 1,1-dioxide] | > 5100 nM
4 | Cc1cc(C(F)(F)F)cc(N2[C@H](C(=O)N(CC#Cc3ncc(C(=O)N4CCOCC4)cn3)c3ccc(F)c(C)c3)CCS2(=O)=O)n1 [Example 82, (S)-N-(4-fluoro-3-methylphenyl)-2-(6-methyl-4-(trifluoromethyl)pyridin-2-yl)-N-(3-(5-(morpholine-4-carbonyl)pyrimidin-2-yl)prop-2-yn-1-yl)isothiazolidine-3-carboxamide 1,1-dioxide] | < 1000 nM
5 | CCN1CCN(c2ccc(C#CCN(C(=O)[C@@H]3CCS(=O)(=O)N3c3cc(C(F)(F)F)cc(C)n3)c3ccc(F)c(C)c3)nn2)CC1 [Example 24, (S)-N-(3-(6-(4-ethylpiperazin-1-yl)pyridazin-3-yl)prop-2-yn-1-yl)-N-(4-fluoro-3-methylphenyl)-2-(6-methyl-4-(trifluoromethyl)pyridin-2-yl)isothiazolidine-3-carboxamide 1,1-dioxide] | < 1000 nM
6 | Cc1cc(C(F)(F)F)cc(N2[C@H](C(=O)N(CC#Cc3cncc(C(=O)N4C[C@H](C)N[C@@H](C)C4)n3)c3ccc(F)c(C)c3)CCS2(=O)=O)n1 [Example 74, (S)-N-(3-(6-((3S,5S)-3,5-dimethylpiperazine-1-carbonyl)pyrazin-2-yl)prop-2-yn-1-yl)-N-(4-fluoro-3-methylphenyl)-2-(6-methyl-4-(trifluoromethyl)pyridin-2-yl)isothiazolidine-3-carboxamide 1,1-dioxide] | < 1000 nM
7 | Cc1cc(C(F)(F)F)cc(N2C(=O)CC[C@H]2C(=O)N(CC#Cc2ccc(C(N)=O)nc2)c2ccc(F)c(C)c2)n1 [Example 12, (S)-5-(3-(N-(4-fluoro-3-methyl-phenyl)-1-(6-methyl-4-(trifluoro-methyl)pyridin-2-yl)-5-oxo-pyrrolidine-2-carboxamido)prop-1-yn-1-yl)picolinamide] | < 1000 nM

Second part, the compound after the results:

Row | IC50 | SMILES
8 | 1100 to 5000 nM | Cc1cc(C(F)(F)F)cc(N2[C@H](C(=O)N(CC#Cc3ccc(N)nn3)c3ccc(F)c(C)c3)CN(C)S2(=O)=O)n1 [Example 109, (S)-N-(3-(6-aminopyridazin-3-yl)prop-2-yn-1-yl)-N-(4-fluoro-3-methylphenyl)-5-methyl-2-(6-methyl-4-(trifluoromethyl)pyridin-2-yl)-1,2,5-thiadiazolidine-3-carboxamide 1,1-dioxide]
9 | < 1000 nM | Cc1cc(C(F)(F)F)cc(N2[C@H](C(=O)N(CC#Cc3cncc(N4CCOCC4)n3)c3ccc(F)c(C)c3)CCS2(=O)=O)n1 [Example 42, (S)-N-(4-fluoro-3-methylphenyl)-2-(6-methyl-4-(trifluoromethyl)pyridin-2-yl)-N-(3-(6-morpholinopyrazin-2-yl)prop-2-yn-1-yl)isothiazolidine-3-carboxamide 1,1-dioxide]
10 | < 1000 nM | CCN1CCN(c2cnc(C#CCN(C(=O)[C@@H]3CCS(=O)(=O)N3c3cc(C(F)(F)F)cc(C)n3)c3cc(C)ccc3F)cn2)CC1 [Example 51, (S)-N-(3-(5-(4-ethylpiperazin-1-yl)pyrazin-2-yl)prop-2-yn-1-yl)-N-(2-fluoro-5-methylphenyl)-2-(6-methyl-4-(trifluoromethyl)pyridin-2-yl)isothiazolidine-3-carboxamide 1,1-dioxide]
11 | < 1000 nM | Cc1cc(C(F)(F)F)cc(N2C(=O)CC[C@H]2C(=O)N(CC#Cc2ccc(N)nn2)c2ccc(F)c(Cl)c2)n1 [Example 3, (S)-N-(3-(6-aminopyridazin-3-yl)prop-2-yn-1-yl)-N-(3-chloro-4-fluorophenyl)-1-(6-methyl-4-(trifluoromethyl)pyridin-2-yl)-5-oxopyrrolidine-2-carboxamide]
12 | 1100 to 5000 nM | Cc1cccc(N(CC#Cc2ccc(N)nn2)C(=O)[C@@H]2CN(C)S(=O)(=O)N2c2cc(C(F)(F)F)cc(C)n2)c1 [Example 107, (3S)-N-[3-(6-aminopyridazin-3-yl)prop-2-ynyl]-5-methyl-2-[6-methyl-4-(trifluoromethyl)-2-pyridyl]-N-(m-tolyl)-1,1-dioxo-1,2,5-thiadiazolidine-3-carboxamide]
13 | < 1000 nM | Cc1cc(C(F)(F)F)cc(N2[C@H](C(=O)N(CC#Cc3cnc(C(N)=O)c(F)c3)c3ccc(F)c(C)c3)CCS2(=O)=O)n1 [Example 96, (S)-N-(3-(6-carbamoyl-5-fluoropyridin-3-yl)prop-2-yn-1-yl)-N-(4-fluoro-3-methylphenyl)-2-(6-methyl-4-(trifluoromethyl)pyridin-2-yl)isothiazolidine-3-carboxamide 1,1-dioxide]
14 | < 1000 nM | Cc1cc(C(F)(F)F)cc(N2[C@H](C(=O)N(CC#Cc3cnc(C(N)=O)c(C)n3)c3ccc(F)c(C)c3)CCS2(=O)=O)n1 [Example 62, (S)-N-(3-(5-carbamoyl-6-methylpyrazin-2-yl)prop-2-yn-1-yl)-N-(4-fluoro-3-methylphenyl)-2-(6-methyl-4-(trifluoromethyl)pyridin-2-yl)isothiazolidine-3-carboxamide 1,1-dioxide]
15 | < 1000 nM | Cc1cc(C(F)(F)F)cc(N2[C@H](C(=O)N(CC#Cc3cnc(N4C[C@H](C)N[C@@H](C)C4)cn3)c3ccc(F)c(C)c3)CCS2(=O)=O)n1 [Example 52, (S)-N-(3-(5-((3S,5S)-3,5-dimethylpiperazin-1-yl)pyrazin-2-yl)prop-2-yn-1-yl)-N-(4-fluoro-3-methylphenyl)-2-(6-methyl-4-(trifluoromethyl)pyridin-2-yl)isothiazolidine-3-carboxamide 1,1-dioxide]
16 | < 1000 nM | Cc1cc(C(F)(F)F)cc(N2[C@H](C(=O)N(CC#Cc3cnc(-c4c[nH]nn4)cn3)c3ccc(F)c(C)c3)CCS2(=O)=O)n1 [Example 56, (S)-N-(3-(5-(1H-1,2,3-triazol-4-yl)pyrazin-2-yl)prop-2-yn-1-yl)-N-(4-fluoro-3-methylphenyl)-2-(6-methyl-4-(trifluoromethyl)pyridin-2-yl)isothiazolidine-3-carboxamide 1,1-dioxide]
17 | 1100 to 5000 nM | Cc1cccc(N(CC#Cc2cnc(N)cn2)C(=O)[C@@H]2CN(C)S(=O)(=O)N2c2cc(C(F)(F)F)cc(C)n2)c1 [Example 108, (S)-N-(3-(5-aminopyrazin-2-yl)prop-2-yn-1-yl)-5-methyl-2-(6-methyl-4-(trifluoromethyl)pyridin-2-yl)-N-(m-tolyl)-1,2,5-thiadiazolidine-3-carboxamide 1,1-dioxide]
